Measurements published in US7554012B2, “Plants and plant cells exhibiting resistance to AMPA, and methods for making the same” (priority 1998, dated 2009).
Values joined by “and” are separate entries in the source; they are usually repeats but may differ in a detail not shown here. Equal values may be shown once.

What was measured:
Tobacco callus = Tobacco callus growth on plates with AMPA or N-acetyl AMPA; assay type: cell-based, Nicotiana tabacum cv. "Samsun"; conditions: plates with 0.1 mM or 0.4 mM, up to three weeks
Procedure: Tobacco callus was generated from leaf pieces of wild type Nicotiana tabacum cv. “Samsun” tobacco on MS104 plates (MS salts 4.3 g/l, sucrose 30 g/l, B5 vitamins 500X 2 ml/l, NAA 0.1 mg/l, and Bacto Agar […]). Callus tissue was applied to plates with or without AMPA and with or without N-acetyl AMPA. Plates contained AMPA or N-acetyl AMPA at concentrations of 0.1 mM or 0.4 mM. Plates were incubated for up to three weeks and monitored periodically.

[1] = test system: recombinant cotton line 3753 (EPSPS/GOX); assay: [^14C]-glyphosate metabolism in cotton line 3753; assay type: in vivo, cotton (Gossypium hirsutum L.); conditions: EPSPS/GOX Plants
Procedure: The metabolism of [^14C]-glyphosate in recombinant cotton lines 4268 (GOX/PhnO) and 3753 (EPSPS/GOX) was also studied. Plants in this study were treated as indicated above for cotton line 4416, by applying droplets of ROUNDUP ULTRA fortified with [^14C]-glyphosate to a single leaf on each plant at the three to four leaf stage. Treated leaves were harvested and rinsed with water, then ground and extracted, and extracts were analyzed by HPLC as described above for the presence of [^14C]-glyphosate, [^14C]-AMPA, and N-acetyl-[^14C]-AMPA. New growth, including the meristem and new leaves that emerged following application were also extracted and analyzed.

transformed corn callus = assay: [^14C]-glyphosate metabolism assay in corn callus
Description: A [^14C]-glyphosate metabolism assay was used for determining whether transformed corn callus tissues contain functioning forms of these enzymes. The assay was developed to screen large numbers of corn callus samples. Callus was obtained from Monsanto Company and Dekalb Seed Company corn transformation groups. The Monsanto callus samples, individually designated as callus lines “19nn-nn-nn” in Table 16, were produced from HI II×B73 corn embryos. Callus samples were bombarded with complete covalently closed circular recombinant plant transformation vector plasmid DNA or with linear DNA fragments isolated from such plasmids 25-50 days after embryo isolation. Transformed lines were identified 8-14 weeks after bombardment. These lines were sub-cultured on fresh media every 2 weeks and were 5-7 months old when used in the metabolism assay. The Dekalb callus lines OO, OR, OW, OX, and OY were obtained from HI II×AW embryos. All line designations correspond to the recombinant plasmid or linear fragment used for ballistic transformation of callus tissue as noted in the legend to Table 16.
4.5 mCi of N-phosphono-[^14C]-methylglycine ([^14C]-glyphosate) was obtained from the Monsanto Radiosynthesis group in a 1.5 mM aqueous solution, having a specific radioactivity of 39.4 mCi/mM (5.2×10^5 dpm/microgram). The sample was identified with code number C-2182.2. A stock solution sterilized by filtration through a 0.2-micron Acrodisk (Gelman no. 4192) was prepared by combining 2.5 mL [^14C]-glyphosate (3.3×10^8 dpm) with 2.5 mL of corn callus growth medium (N6 medium) and 5.0 mg of Mon 0818 surfactant. [^14C]-glyphosate in the resulting dose solution was 0.75 mM. The N6 medium was described by Chu et al. (1975) and was prepared using salts and vitamins obtained from Sigma Chemical Company, St. Louis, Mo. Mon 0818 surfactant is ethoxylated tallowamine, the surfactant used in Roundup herbicide. The dose solution was subjected to HPLC analysis as described in Example 2. […] Two additional dose solutions were prepared using these reagents, each of which were scaled three fold to 15 ml volumes based on the preparation method described above.
Under aseptic conditions, corn callus samples were transferred to individual wells of sterile 48-well COSTAR™ cell culture clusters (cat. No. 3548). The individual callus samples were not weighed. However, in several cases the total weight of the callus samples in a 48-well plate was determined. Typically, the average weight of individual callus samples was approximately 200-250 mg. In each assay, a nontransformed callus sample, HI II×B73, was included as a control. 50 μL of dose solution containing 3.3×10^6 dpm of [^14C]-glyphosate was added to each callus sample. 48-well plates were sealed with parafilm and placed in a plastic bag containing a wet paper towel to provide a moist atmosphere. Bags were closed and placed in a dark drawer at 25° C. for 10 days. Each callus sample was subsequently transferred to a labeled microcentrifuge tube (VWR, 1.7-mL, cat. No. 20170-620). 1.0 mL of de-ionized water was added to each tube, and the tubes were closed and placed in round 20-tube floating microcentrifuge racks (Nalge cat. no. 5974-1015). These microfuge tubes were floated in boiling water for 30 minutes, shaken using a vortex mixer, and centrifuged for 5 minutes using a Fisher brand microcentrifuge. 120-μL supernatant samples were removed for analysis by HPLC as described below. The samples were injected using a Waters WISP autoinjector.

female gametes = conditions: under optimal conditions; cited from earlier work
[2] = [^14C]-glyphosate in growth medium exposed to light
Procedure: Growth medium to which [^14C]-glyphosate was added was treated to the same conditions as wheat plants, ie, the medium was exposed to incident light intensities which plants received.

[3] = FIG. 3, callus transformed with GOX and AMPA acetyltransferase
[4] = control callus HI II×B73, no inserted genes

With NCP(=O)(O)O [AMPA, N-aminomethyl phosphonic acid] the “growth of tobacco callus tissue” value (Tobacco callus) was “severely inhibited”.

For N-phosphono-methyl-glycine [Glyphosate], the “% [^14C] metabolite in New Growth Extract: N-Acetyl-AMPA” value [1] was 1.9%, the “% [^14C] metabolite in Glyphosate Treated Leaf Extract: AMPA” value ([1]; listed as [^14C]-Glyphosate) was 6-27% and the “% [^14C] metabolite in Glyphosate Treated Leaf Extract: Glyphosate” value ([1]; listed as [^14C]-Glyphosate) was 59.8% and 92.7% and 81.2% and 86.2%. For the same compound, the “% [^14C] metabolite in Glyphosate Treated Leaf Extract: N-Acetyl-AMPA” value ([1]; listed as [^14C]-Glyphosate) was 0.8% and 1.0%, the “% [^14C] metabolite in New Growth Extract: AMPA” value ([1]; listed as [^14C]-Glyphosate) was 72-86% and the “% [^14C] metabolite in New Growth Extract: Glyphosate” value ([1]; listed as [^14C]-Glyphosate) was 93%. For the same compound, the “N-acetyl-[^14C]AMPA, of total observed [^14C]” value (transformed corn callus; [3]) was 4.54%, the “[^14C] AMPA, of total observed [^14C]” value (transformed corn callus; [3]) was 1.71% and the “[^14C] glyphosate, of total observed [^14C]” value (transformed corn callus; [3]) was 92.5%. The “Percent N-Acetyl-[^14C]-AMPA” value (transformed corn callus; callus OR516 transformed with pMON32926) was 0.50-4.54%, the “Percent N-Acetyl-[^14C]-AMPA” value (transformed corn callus; callus OR516 transformed with pMON32926, listed as [^14C]-glyphosate) was 1.91% and the “Percent [^14C]-AMPA” value (transformed corn callus; callus line transformed with pMON32571) was 2.89%. The “Percent N-Acetyl-[^14C]-AMPA” value (transformed corn callus; callus line transformed with pMON32573) was 0.39%, the “Percent N-Acetyl-[^14C]-AMPA” value (transformed corn callus; callus line transformed with pMON32932) was 0.28% and the “Percent N-Acetyl-[^14C]-AMPA” value (transformed corn callus; callus line transformed with pMON32938) was 0.21%. For the same compound, the “Percent [^14C]-AMPA” value (transformed corn callus; callus line transformed with pMON32946) was 2.51%, the “Percent [^14C]-AMPA” value (transformed corn callus; callus line transformed with pMON32947) was 1.99% and the “Percent N-Acetyl-[^14C]-AMPA” value (transformed corn callus; callus line transformed with pMON32952) was 0.37%. For the same compound, the “Percent N-Acetyl-[^14C]-AMPA” value (transformed corn callus; callus lines transformed with pMON32571, listed as [^14C]-glyphosate) was 0.22% and 0.25%, the “Percent N-Acetyl-[^14C]-AMPA” value (transformed corn callus; callus lines transformed with pMON32931, listed as [^14C]-glyphosate) was 0.40% and 0.75% and 0.55% and the “Percent [^14C]-AMPA” value (transformed corn callus; callus lines transformed with pMON32936, listed as [^14C]-glyphosate) was 2.29% and 3.05% and 2.15% and 2.06%. The “Percent [^14C]-AMPA” value (transformed corn callus; callus lines transformed with pMON32938, listed as [^14C]-glyphosate) was 2.41% and 2.90%, the “Percent N-Acetyl-[^14C]-AMPA” value (transformed corn callus; callus lines transformed with pMON32946, listed as [^14C]-glyphosate) was 0.77% and 0.85% and the “Percent N-Acetyl-[^14C]-AMPA” value (transformed corn callus; callus lines transformed with pMON32947, listed as [^14C]-glyphosate) was 0.60% and 0.71%. For the same compound, the “N-acetyl-[^14C]-AMPA produced” value (transformed corn callus; [4]) was “no detectable levels”, the “[^14C]-AMPA produced” value (transformed corn callus; [4]) was “only background levels” and the “female gametes left capable of fertilization” value (female gametes) was 40-60%. For the same compound, the “Acetyl-[^14C]-AMPA, of summed [^14C] peaks” value [2] was 2% and 0% and 0.2% and the “[^14C]-Glyphosate, of summed [^14C] peaks” value ([2]; same light exposure as plants) was 48% and 87% and 60%.
